Entries after “also recorded” stand apart in the source; their conditions may differ.
How the values were obtained:
[1] = test system: colon tumor burden in AOM mice (Azoxymethane + FVB); assay: AOM mouse model: colon tumor count after peptide vaccination; assay type: in vivo; conditions: for effect on colon tumor burden (tumor count): AOM treated FVB mice, vs control group (CFA/IFA; PBS for IGF1R, PRL3, RCAS1); for peptide efficacy, Azoxymethane + FVB (Induced): summary table, Yes/No
Experimental: AOM mouse in-vivo experiments. At 6 weeks of age, FVB mice were immunized in CFA/IFA, PBS, and vaccine groups. Each group received subcutaneous injections (100 ul PBS, 50 ul CFA with 50 ul PBS, 50 ug per peptide with 50 ul CFA) once every 10-14 days for a total of three doses and a booster was given every 4-5 weeks after the third vaccine. See Table 7 for peptides included in vaccine compositions. CFA was replaced with IFA after the first vaccine. Seven days after the third vaccine, mice were injected with Azoxymethane (AOM) at 10 mg/kg, twice weekly for 6 weeks. At 26 weeks of age, all mice were sacrificed and tumors in the colon were counted.

[2] = test system: small bowel tumor burden in APCmin mice; assay: APCmin mouse model: small bowel tumor count after peptide vaccination; assay type: in vivo; conditions: for effect on small bowel tumor burden (tumor count): APCmin mice, vs CFA/IFA control, 50 ug per peptide s.c.; for peptide efficacy, APCmin Small Bowel (Spontaneous): summary table, Yes/No
Experimental: (§1) Offspring from APCmin were genotyped by PCR for the presence of the Min mutation using primers as follows: Wild-Type: 5′-[…]-3′ (SEQ ID NO: 46), Common 5′-[…]-3′ (SEQ ID NO: 47), Mutant: 5′-[…]-3′ (SEQ ID NO: 48). Both male and female mice testing positive for the Min mutation were included in the study and randomized into groups.
(§2) At 4-6 weeks of age, mice were immunized in CFA/IFA, PBS, and vaccine groups. Each group received subcutaneous injections (100 ul PBS, 50 ul CFA with 50 ul PBS, 50 ug per peptide with 50 ul CFA) once every 7-10 days for a total of three doses and one booster was given 4-5 weeks after the third vaccine. See Table 5 for peptides included in vaccine compositions. CFA was replaced with IFA after the first vaccine. All mice were sacrificed at 14 to 17 weeks of age, the gastrointestinal tracts were collected and tumors counted.

[3] = test system: small bowel tumor burden in APCmin mice; assay: APCmin survival study: small bowel tumor count at sacrifice; assay type: in vivo; conditions: boosters every 4-5 weeks, vs CFA/IFA
Experimental: At 4-6 weeks of age, mice were immunized with CFA/IFA, PBS, and vaccine groups. Each group received subcutaneous injections (100 ul PBS, 50 ul CFA with 50 ul PBS, 50 ug per peptide with 50 ul CFA) once every 7-10 days for a total of three doses and a booster vaccine was given every 4-5 weeks after the third vaccine. See Table 6 for peptides included in vaccine compositions. CFA was replaced with IFA after the first vaccine. […] At sacrifice, small intestines were collected and small bowel tumors counted.

[4] = test system: colon tumor burden in APCmin mice; assay: APCmin mouse model: colon tumor count after peptide vaccination; assay type: in vivo; conditions: for effect on colon tumor burden (tumor count): APCmin mice, vs CFA/IFA control, 50 ug per peptide s.c.; for peptide efficacy, APCmin Colon (Spontaneous): summary table, Yes/No
Experimental: as §1, §2

[5] = test system: MC-38 cells (murine adenocarcinoma); assay: MC-38 tumor implant model: tumor volume after peptide vaccination; assay type: in vivo, C57Bl/6 mice; conditions: for effect on tumor volume: MC-38 tumor implant in C57Bl/6 mice, vs CFA/IFA; for peptide efficacy, MC-38 + B6 (Tumor Implant): summary table, Yes/No
Experimental: MC-38 tumor implant in-vivo experiments. At 6 weeks of age, mice were immunized in CFA/IFA, PBS, and vaccine groups. Each group received subcutaneous injections (100 ul PBS, 50 ul CFA with 50 ul PBS, 50 ug per peptide with 50 ul CFA) once every 10-14 days for a total of three doses. See Table 9 for peptides included in vaccine compositions. CFA was replaced with IFA for the second and third vaccines. Two weeks after the final vaccine, we subcutaneously implanted 4×10^4 MC-38 cells (murine adenocarcinoma), and measured tumor growth with Vernier calipers 2-3 times per week. Tumor volume was calculated as length×width×height×π/6, which is the standard volume calculation of an ellipsoid. Mice were sacrificed when tumor size in control mice reached greater than 1000 mm^3.

| Substance | effect on colon tumor burden (tumor count) [1] | peptide efficacy, Azoxymethane + FVB (Induced) [1] | effect on small bowel tumor burden (tumor count) [2] | peptide efficacy, APCmin Small Bowel (Spontaneous) [2] | effect on small bowel tumor burden (tumor count) [3] | effect on colon tumor burden (tumor count) [4] | peptide efficacy, APCmin Colon (Spontaneous) [4] | effect on tumor volume [5] | peptide efficacy, MC-38 + B6 (Tumor Implant) [5] |
| --- | --- | --- | --- | --- | --- | --- | --- | --- | --- |
| COX2: peptide vaccine of COX-2 #32, #33, #34, 50 ug per peptide with CFA/IFA (chain 1 FKGFWNVVNNIPFLRN; chain 2 GLVPGLMMYATIWLREH; chain 3 GEVGFQIINTASIQSLIC; with CFA/IFA adjuvant) | vaccine efficacy; also recorded: significantly inhibits | Yes | significantly inhibits; also recorded: vaccine efficacy | Yes | does not significantly inhibit | does not significantly inhibit; also recorded: lack of COX2 vaccine efficacy | No | significantly inhibits | Yes |
| CDC25B: peptide vaccine of CDC25B #38 (p130-150) and #39 (p405-427), 50 ug per peptide with CFA/IFA (chain 1 QAIQAASRIIRNEQFAIRRFQ; chain 2 VDGKHQDLKYISPETMVALLTGK; with CFA/IFA adjuvant) | vaccine efficacy; also recorded: significantly inhibits | Yes | significantly inhibits; also recorded: vaccine efficacy | Yes | does not significantly inhibit | does not significantly inhibit; also recorded: lack of CDC25B vaccine efficacy | No | significantly inhibits | Yes |
| IGF1R: peptide vaccine of IGF1R #1, #2, #3, #4, 50 ug per peptide with CFA/IFA (chain 1 VVTGYVKIRHSHALV; chain 2 TQYAVYVKAVTLTMV; chain 3 LVIMLYVFHRKRNNS; chain 4 GMAYLNANKFVHRDL; with CFA/IFA adjuvant) | lack of IGF1R vaccine efficacy; also recorded: does not significantly inhibit | No | vaccine efficacy; also recorded: significantly inhibits | Yes | – | lack of IGF1R vaccine efficacy; also recorded: does not significantly inhibit | No | does not significantly inhibit | No |
